Measured values as given in patent US11691984B2, “Compounds and methods for DCAF-mediated protein degradation” (The Scripps Research Institute, priority 2018, dated 2023).

What was measured:
[1] = tested on: HEK293T cells; assay: Cell viability assay (Cell Titer Glo); format: cell-based, human
Method: HEK293T cells were seeded in 96-well clear bottom white plate (Corning) at 3×10^4 cells per well in 100 μL of DMEM medium and grown for 24 h. The cells were treated with 0.625, 1.25, 2.5, 5, 10, 20 and 40 μM of KB02-SLF or KB02-JQ1 (DMSO stock, final DMEM concentration is 0.1% (v/v)) in 100 μL of DMEM medium for 24 h. 50 μL of Cell Titer Glo reagent (Promega) was added to each well and incubate for 10 min at room temperature. The luminescence was read on CLARIOstar (BMG LAB TECH).

[2] = biological target: FLAG-FKBP12_NLS (Homo sapiens, UniProt P62942); assay: Anti-FLAG western blot of stably expressed nuclear FKBP12 (FLAG-FKBP12_NLS) in HEK293T cells; format: cell-based; design: expressed in transfected cells; host or cells: HEK293T, MDA-MB-231 and HEK293 DCAF16+/+ and DCAF16-/- clones (lentiviral pCDH-CMV-MCS-EF1-Puro); details: HEK293T
Sequence of FLAG-FKBP12_NLS (P62942 whole entry): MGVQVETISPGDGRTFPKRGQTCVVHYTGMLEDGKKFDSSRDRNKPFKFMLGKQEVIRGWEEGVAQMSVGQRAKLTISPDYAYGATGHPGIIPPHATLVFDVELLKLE
Description: FLAG-tagged variants of FKBP12 (FLAG-FKBP12) or (2) FKBP12 with a C-terminal nuclear localization sequence (FLAG-FKBP12_NLS) were then stably expressed in HEK293T cells to provide cell models for evaluating cytosolic- and nuclear-localized E3-mediated degradation pathways, respectively.
FLAG-FKBP12 or FLAG-FKBP12_NLS lentivirus was generated by co-transfection of FLAG-FKBP12 or FLAG-FKBP12_NLS, pCMV-dR8.2 and pMD2.G into HEK 293T cells using FuGene 6 transfection reagent (Promega). Virus-containing medium were collected 48 h after transfection, filtered with […] filter, and used to transduce HEK293T and MDA-MB-231 cells in the presence of 10 μg/mL polybrene (Santa Cruz). 72 h after transduction, puromycin (2 μg/mL) was added to cells. HEK293T cells stably expressing FLAG-FKBP12 or FLAG-FKBP12_NLS were obtained after puromycin selection for 7 days. HEK293T cells stably expressing pCDH empty vector were generated in parallel as control.
shRNA lentivirus was generated by co-transfection of shRNA-containing vector, pCMV-dR8.2 and pMD2.G into HEK 293T cells using FuGene 6 transfection reagent (Promega). Virus-containing medium were collected 48 h after transfection and used to transiently transduce HEK293T cells stably expressing FLAG-FKBP12_NLS for 48 h. Lentiviral shRNAs targeting human DCAF16 or DTL were in pLKO.1 vector and purchased from Sigma. The sequences of shRNAs is described below.
(§1) Cells were collected and lysed in 1% NP-40 lysis buffer (25 mM Tris-HCl pH 7.4, 150 mM NaCl, 10% glycerol, 1% Nonidet P-40) with complete protease inhibitor cocktail (Roche). Cells were vortexed and sonicated for 5 pulses (40%, 4). The supernatant was collected after centrifugation at 16,000 g for 10 min at 4° C. Protein concentration was determined by DC assay (Bio-Rad). Protein lysate was heated at 95° C. for 5 min in 1× Laemmli sample buffer. Proteins were resolved by 12% or 14% Novex Tris-Glycine Mini Gels (Invitrogen) and transferred to polyvinylidene fluoride (PVDF) membrane (0.2 Bio-Rad). The membrane was blocked with 5% BSA in TBST buffer (0.1% Tween 20, 20 mM Tris-HCl 7.6, 150 mM NaCl) at room temperature for 1 h. The antibody was diluted with fresh 5% BSA in TBST buffer (1:10000 dilution for FLAG, HA and β-Actin, 1:1000 dilution for others) and incubated with membrane (1 h room temperature for FLAG, HA and β-Actin, overnight 4° C. for others). Membrane was washed three times with TBST buffer and incubated with secondary antibody (1:5000 dilution in 5% BSA in TBST) at room temperature for 1 h. Membrane was washed three times with TBST buffer. The chemiluminescence signal in membrane was recorded after developing in ECL or ECL plus western blotting detection reagent using CL-XPosure film (Thermo Scientific). Relative band intensities were quantified using ImageJ.

[3] = biological target: T1, BRD4 and DCAF16 (Homo sapiens, UniProt O60885+Q9NXF7); assay: Co-immunoprecipitation of BRD4-FLAG with HA-DCAF16 in HEK293T cells; format: cell-based; details: 10 μM KB02-JQ1, 10 μM MG132, 2 hours
T1 construct: expressed in transfected cells; host or cells: HEK293T (pRK5 vectors)
Method: as §1, with “ImageJ. […]” for “ImageJ.”

## CCC(C)(C)C(=O)C(=O)N1CCCC[C@H]1C(=O)O[C@H](CCc1ccc(OC)c(OC)c1)c1cccc(NC(=O)CCOCCOCCNC(=O)COc2ccc3c(c2)CCCN3C(=O)CCl)c1 [KB02-SLF, (R)-1-(3-(3-(2-(2-(2-((1-(2-chloroacetyl)-1,2,3,4-tetrahydroquinolin-6-yl)oxy)acetamido)ethoxy)ethoxy)propanamido)phenyl)-3-(3,4-dimethoxyphenyl)propyl (S)-1-(3,3-dimethyl-2-oxopentanoyl)piperidine-2-carboxylate]
[1]
  test concentrations with evidence of cytotoxicity: > 10 µM
[2]
  concentration for degradation of FKBP12_NLS: 0.5 to 2 µM
[2]; 2 μM, 8 or 24 h
  nuclear FKBP12 (FKBP12_NLS) protein level: substantial reduction in nuclear FKBP12
[2]; KB02-SLF 2 μM, 8 h
  KB02-SLF-mediated degradation of FKBP12_NLS after shRNA knockdown of DCAF16: substantially prevented KB02-SLF-mediated degradation of FKBP12_NLS
  KB02-SLF-mediated degradation of FKBP12_NLS after shRNA knockdown of DTL: not DTL
[2]; KB02-SLF, FIG. 5A
  time frame across which the reduction in nuclear FKBP12 was sustained: 4 to 72 h
[2]; reductions in activity at higher concentrations, in µM
  concentration across which loss of FKBP12_NLS was promoted: 0.5-5

## Cc1sc2c(c1C)C(c1ccc(Cl)cc1)=N[C@@H](CC(=O)NCCOCCOCCNC(=O)COc1ccc3c(c1)CCCN3C(=O)CCl)c1nnc(C)n1-2 [KB02-JQ1, (S)-2-((1-(2-chloroacetyl)-1,2,3,4-tetrahydroquinolin-6-yl)oxy)-N-(2-(2-(2-(2-(4-(4-chlorophenyl)-2,3,9-trimethyl-6H-thieno[3,2-f][1,2,4]triazolo[4,3-a][1,4]diazepin-6-yl)acetamido)ethoxy)ethoxy)ethyl)acetamide]
[3]
  co-immunoprecipitation of DCAF16 with BRD4: co-immunoprecipitated with BRD4 in a KB02-JQ1-dependent manner
